Results published in PubChem BioAssay (NCI).
“And” between values parts separate entries of the source, which are not always exact repeats. Equal values may be shown once.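 Cultured in 96-well plates, cells were exposed to test compound for 48 hours across five concentrations. Abbreviation: GI50, concentration required for 50% inhibition of growth. TGI is the concentration that stops growth completely.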

Legend:
Assay in all cases: NCI tumour cell line growth inhibition, 48 h
HS 578T breast = system: HS 578T breast
SN12C renal = system: SN12C renal
SK-OV-3 ovarian = system: SK-OV-3 ovarian
HOP-62 NSCLC = system: HOP-62 NSCLC
PC-3 prostate = system: PC-3 prostate
HT29 colon = system: HT29 colon
NCI-H226 lung = system: NCI-H226 lung
HCC-2998 colon = system: HCC-2998 colon
MCF7 breast = system: MCF7 breast
786-0 renal = system: 786-0 renal

Structure (SMILES) | GI50 (HS 578T breast) | TGI (HS 578T breast) [µM] | GI50 (SN12C renal) | TGI (SN12C renal) [µM] | GI50 (SK-OV-3 ovarian) | TGI (SK-OV-3 ovarian) [µM] | GI50 (HOP-62 NSCLC) | TGI (HOP-62 NSCLC) [µM] | GI50 (PC-3 prostate) | TGI (PC-3 prostate) [µM] | GI50 (HT29 colon) | TGI (HT29 colon) [µM] | GI50 (NCI-H226 lung) | TGI (NCI-H226 lung) [µM] | GI50 (HCC-2998 colon) | TGI (HCC-2998 colon) [µM] | GI50 (MCF7 breast) | TGI (MCF7 breast) [µM] | GI50 (786-0 renal) | TGI (786-0 renal) [µM]
Fc1ccc(-c2c(-c3ccncc3)nc3n2CCS3)cc1 | > 25 µM | > 25 | > 25 µM | > 25 | > 25 µM | > 25 | > 25 µM | > 25 | > 25 µM | > 25 | > 25 µM | > 25 | > 25 µM | > 25 | > 25 µM | > 25 | > 25 µM | > 25 | > 25 µM | > 25
Oc1ccc(C=Nc2ccccc2O)cc1 |  | > 100 |  | > 100 |  | > 100 |  | > 100 |  | > 100 |  | > 100 |  | > 100 |  | > 100 |  | 90.8 |  | 67.4
O=C1N[C@@H]2[C@@H](O)[C@@H](O)[C@H](O)C[C@H]2c2cc3c(c(O)c21)OCCO3 | 0.27 µM | 0.976 | 0.162 µM | 0.978 | 0.496 µM | 4.03 | 0.282 µM | 1.32 | 0.293 µM | 2.54 | 0.315 µM | 2.08 | 0.273 µM | 1.08 | 0.227 µM | 0.765 | 0.154 µM | 0.796 | 0.293 µM | 2.08
COc1cc(/C=C/c2cc(/C=C/c3ccc(O)c(OC)c3)n(C(=O)c3ccc(Cl)cc3)n2)ccc1O | 3.23 µM | > 100 | 2.35 µM | 13 | 1.83 µM | 4.35 | 2.08 µM | 6.92 | 2.66 µM | 15.5 | 3.42 µM | > 100 | 3.51 µM | 23.2 | 3.94 µM | 12.8 | 2.43 µM | 16 | 2.55 µM | 16.2
CC[C@H](C)[C@H](NC(=O)[C@H]1CCCCN1C)C(=O)N(C)[C@H](C[C@@H](OC(C)=O)c1cccc(C(=O)N[C@@H](Cc2ccccc2)C[C@H](C)C(=O)OC)n1)C(C)C | 0.0423 µM and 0.00613 µM | > 25 | 0.00567 µM and 0.0113 µM | > 25 | 0.00308 µM and 0.00314 µM | > 25 | 0.0065 µM and 0.00427 µM | > 25 | 0.0032 µM and 0.0025 µM | > 25 | 0.00182 µM and 0.0025 µM | 0.0421 | 0.456 µM and 0.0514 µM | > 25 | 0.00362 µM and 0.0025 µM | > 25 | 0.000334 µM and 0.0025 µM | > 25 | 0.00526 µM and 0.00425 µM | 18.3
O=C(NCCCCN1CCOCC1)c1cc2ccccc2o1 | > 100 µM | > 100 | > 100 µM | > 100 | > 100 µM | > 100 | > 100 µM | > 100 | > 100 µM | > 100 | > 100 µM | > 100 | > 100 µM | > 100 | > 100 µM | > 100 | > 100 µM | > 100 | > 100 µM | > 100
Nc1nc(/C=C\c2ccc([N+](=O)[O-])s2)nc(N2CCN(c3ccccc3)CC2)n1 | 0.54 µM | 14.6 | 14.3 µM | 34.5 | 30.7 µM | 62.5 | 29 µM | 64.3 | 21.9 µM | 63.7 | 27.5 µM | 70.4 | 15.2 µM | 36.4 | 22.2 µM | 44.8 | 14.8 µM | 49.4 | 24.2 µM | 48.7
CC(=O)O[C@@H]1C2CCC3C(CC[C@@]4(C)C3CC[C@@H]4C(C)N(C)C)[C@@]2(C)CC[C@@H]1NC(=O)C=C(C)C (stereo not given in full) | 2.2 µM | 6.82 | 3.2 µM | 12.3 | 3.61 µM | 10.3 | 2.25 µM | 5.62 | 2.79 µM | 13.9 | 0.552 µM | 1.97 | 5.22 µM | 19.6 | 1.73 µM | 3.66 | 1.67 µM | 4.38 | 2.42 µM | 6.73
Cc1nc([N+](=O)[O-])cn1-c1nc2ccccn2c1[N+](=O)[O-] |  | > 100 |  | > 100 |  | > 100 |  | > 100 |  | > 100 |  | > 100 |  | > 100 |  | > 100 |  | > 100 |  | > 100
CN[C@H]1CN(c2ccc3c(=O)c(C(=O)O)cn(-c4nccs4)c3n2)C[C@@H]1OC | 1.49 µM | 6.68 | 0.364 µM | 5.69 | 1.08 µM | 5.29 | 0.6 µM | 3.4 | 1.65 µM | 19.4 | 1.04 µM | 4.2 | 0.632 µM | 3.24 | 0.856 µM | 3.58 | 0.358 µM | 5.07 | 0.426 µM | 6.18
O=c1oc2ccc(I)cc2c(=O)n1-c1ccc(Br)cc1F | 0.345 µM | 3.14 | 0.546 µM | 5.7 | 0.614 µM | 2.97 | 1.83 µM | 6.65 | 1.94 µM | 6.89 | 3.3 µM | 13.5 | 1.27 µM | 4.39 | 2.98 µM | 9.5 | 1.34 µM | 9.22 | 2.42 µM | 7.12
CNC(=O)c1ccc(N2C(=S)N(c3cnc(C#N)c(C(F)(F)F)c3)C(=O)C23CCC3)cc1F | > 100 µM | > 100 | > 100 µM | > 100 | > 100 µM | > 100 | > 100 µM | > 100 | > 100 µM | > 100 | > 100 µM | > 100 | > 100 µM | > 100 | > 100 µM | > 100 | 99.8 µM | > 100 | > 100 µM | > 100
COc1ccc(C2(Cl)c3ccccc3N(c3ccccc3)c3ccccc32)cc1 | 0.407 µM | 17.2 | 0.232 µM | 1.22 | 0.495 µM | 2.74 | 0.411 µM | 2.76 | 0.238 µM | 4.11 | 0.306 µM | 2.3 | 1.01 µM | 3.55 | 0.357 µM | 1.53 | 0.182 µM | 1.9 | 0.618 µM | 2.06
C[C@@H](Oc1cc(-n2cnc3ccc(OC4CCN(C)CC4)cc32)sc1C(N)=O)c1ccccc1Cl | 0.0419 µM | 0.597 | 0.255 µM | 4.75 | 0.0216 µM | 2.8 | 0.0166 µM | 3.29 | 0.0153 µM | 6.02 | 0.00829 µM | 2.77 | 0.289 µM | 5.49 | 0.0234 µM | 2.98 | 0.00884 µM | 3.92 | 0.0951 µM | 3.48
CCc1ccc(Oc2c(-c3ccc(OCc4ccc(Cl)cc4)cc3O)n[nH]c2C(F)(F)F)cc1 | 2.66 µM | 8.11 | 1.72 µM | 3.35 | 2.43 µM | 7.01 | 1.87 µM | 3.48 | 1.88 µM | 3.86 | 2 µM | 3.95 | 2.11 µM | 5.26 | 1.93 µM | 4 | 2 µM | 5.65 | 1.72 µM | 3.27
O=C(CSc1nc2c(n1Nc1ccccc1)-c1ccccc1SC2)Nc1nc(-c2ccc(Cl)cc2)cs1 | 6.35 µM | 78.7 | > 100 µM | > 100 | 11.8 µM | 29.5 | 14 µM | 34 | > 100 µM | > 100 | > 100 µM | > 100 | 29.9 µM | > 100 | > 100 µM | > 100 | > 100 µM | > 100 | 12.7 µM | 34.8
O=C1Nc2c(ccc(Cl)c2Cl)/C1=C/c1cc(Br)c(O)c(Br)c1 | 4.32 µM | 46.4 | 10.7 µM | > 100 | 4.88 µM | 30.4 | 11.9 µM | > 68 | 5.23 µM | > 100 | 4.05 µM | 23.7 | 11.5 µM | 60.4 | 6.59 µM | 32.5 | 3.4 µM | > 71.9 | 6.62 µM | 78.7
O=C(CN(/C=C/C(=O)C(F)(F)F)c1ccc(Cl)cc1)c1ccc(Cl)cc1 | 13.8 µM | 42.5 | 11.9 µM | 24.2 | 17.9 µM | 33.5 | 32.8 µM | > 100 | 12.9 µM | 26.5 | 7.41 µM | > 100 | 14.8 µM | 29.4 | 15.7 µM | 35 | 5.15 µM | 29.8 | 18.6 µM | 65.1
O=C1NC(=C(Cl)Cl)/C(=N/S(=O)(=O)N2CCCCC2)N1 | 3.18 µM | 10.7 | 1.7 µM | 3.14 | 15.4 µM | 28.8 | 2.92 µM | 9.07 | 3.05 µM | 10.5 | 1.99 µM | 3.98 | 3.37 µM | 14.9 | 2.28 µM | 5.22 | 2.87 µM | > 100 | 2.79 µM | 7.74
COc1ccc2c(c1)C(=O)c1c-2n(CCCN(C)C)c(=O)c2ccccc12 | 0.624 µM | 5.99 | 0.255 µM | 5.7 | 0.382 µM | 3.14 | 0.433 µM | 11.2 | 0.436 µM | 8.07 | 0.275 µM | 10.9 | 0.413 µM | 2.59 | 0.187 µM | 0.955 | 0.0295 µM | 2.31 | 0.176 µM | 2.3
COc1ccc2ncn(-c3cc(O[C@H](C)c4ccccc4C(F)(F)F)c(C(N)=O)s3)c2c1 | 0.31 µM | 7.18 | 1.19 µM | 7.74 | 0.1 µM | 5.56 | 0.105 µM | 4.18 | 0.137 µM | 15.3 | 0.0839 µM | 3.21 | 3.07 µM | 12.4 | 0.161 µM | 3.27 | 0.0637 µM | 13 | 0.592 µM | 5.79
C/C=C(\C)c1cc(=O)c2c(C)cc3c(c2o1)C(=O)c1c(O)c(C2CC(C)(N(C)C)C(OC(C)=O)C(C)O2)cc(C2CC(N(C)C)C(O)C(C)O2)c1C3=O (stereo not given) |  | 18.6 |  | 8.81 |  | > 50 |  | 6.45 |  | 7.83 |  | 6.75 |  | 5.57 |  | 2.32 |  | 7.85 |  | 5.68
Cc1cc2nc(NCCN)n(Cc3ccc(F)c(Cl)c3)c2cc1C | 11.8 µM | 28.2 | 15.1 µM | 29.8 | 16.9 µM | 30.8 | 14.2 µM | 28.5 | 10 µM | 22.4 | 11.7 µM | 24.5 | 19.8 µM | 39.7 | 1.82 µM | 3.65 | 11.7 µM | 27.1 | 10.2 µM | 23.3
COc1ccc(C(=O)C(CN(C)C)CN(C)C)cc1 | 17.3 µM | 56.3 | 12.6 µM | 56.4 | 20.2 µM | 59.5 | 17.8 µM | 32.9 | 13.2 µM | 29.9 | 2.3 µM | 5.77 | 16.9 µM | 37.6 | 15.9 µM | 30 | 2.73 µM | 12.3 | 3.87 µM | 16.1
O=c1c2c(nc3n1CCS3)[nH]c1cc([N+](=O)[O-])ccc12 | > 100 µM | > 100 | > 100 µM | > 100 | > 100 µM | > 100 | > 100 µM | > 100 | > 100 µM | > 100 | > 100 µM | > 100 | > 100 µM | > 100 | > 100 µM | > 100 | 7.57 µM | 30.9 | > 100 µM | > 100
